{
  "source": "ChEMBL document CHEMBL1828590",
  "about": "(J Med Chem, 2011)",
  "key": {"Mus musculus [1]": {"test_system": "Mus musculus", "assay": "Toxicity in athymic nu/nu Harlan mouse xenografted with human HCT116 cells assessed as body weight loss at 100 mg/kg, po QD for 21 days measured on day 8", "format": "organism-based, HCT-116", "set-up": "dose 100 mg/kg, route oral", "details": "in vivo, 504 h"}, "HCT-116 [2]": {"test_system": "HCT-116", "assay": "Antitumor activity against human HCT116 cells xenografted in athymic nu/nu Harlan mouse assessed as tumor growth inhibition at 50 mg/kg, po qd for 21 days measured on day 22", "format": "functional", "details": "read-out: TGI"}, "HCT-116 [3]": {"test_system": "HCT-116", "assay": "Antitumor activity against human HCT116 cells xenografted in athymic nu/nu Harlan mouse assessed as tumor growth inhibition at 200 mg/kg, po qd for 21 days measured on day 22", "format": "functional", "details": "read-out: TGI"}, "Mus musculus [4]": {"test_system": "Mus musculus", "assay": "Toxicity in athymic nu/nu Harlan mouse xenografted with human HCT116 cells assessed as mouse survival at 50 mg/kg, po QD for 21 days measured on day 22", "format": "organism-based, HCT-116", "set-up": "dose 50 mg/kg, route oral", "details": "in vivo, 504 h"}, "HCT-116 [5]": {"test_system": "HCT-116", "assay": "Antitumor activity against human HCT116 cells xenografted in athymic nu/nu Harlan mouse assessed as tumor growth inhibition at 100 mg/kg, po qd for 21 days measured on day 22", "format": "functional", "details": "read-out: TGI"}, "[6]": {"assay": "Half life in dog liver microsomes", "format": "ADME, Canis lupus familiaris, Microsome"}, "[7]": {"assay": "Half life in rat liver microsomes", "format": "ADME, Microsome"}, "[8]": {"assay": "Kinetic solubility of the compound at pH 7 with […] DMSO", "format": "physicochemical", "details": "buffer, read-out: Kinetic_solubility"}, "[9]": {"assay": "Half life in mouse liver microsomes", "format": "ADME, Microsome", "details": "liver microsomes"}, "Mus musculus [10]": {"test_system": "Mus musculus", "assay": "Toxicity in athymic nu/nu Harlan mouse xenografted with human HCT116 cells assessed as body weight loss at 200 mg/kg, po QD for 21 days measured on day 19", "format": "organism-based, HCT-116", "set-up": "dose 200 mg/kg, route oral", "details": "in vivo, 504 h"}, "[11]": {"assay": "Half life in human liver microsomes", "format": "ADME, Microsome"}, "Mus musculus [12]": {"test_system": "Mus musculus", "assay": "Toxicity in athymic nu/nu Harlan mouse xenografted with human HCT116 cells assessed as mouse survival at 100 mg/kg, po QD for 21 days measured on day 22", "format": "organism-based, HCT-116", "set-up": "dose 100 mg/kg, route oral", "details": "in vivo, 504 h"}, "HCT-116 [13]": {"test_system": "HCT-116", "assay": "Antiproliferative activity against human HCT116 cells after 96 hrs by celltiter 96 assay", "format": "functional, cell-based", "details": "HCT-116, 96 h"}, "HCT-116 [14]": {"test_system": "HCT-116", "assay": "Antitumor activity against human HCT116 cells xenografted in nude BALB/c mouse assessed as tumor growth inhibition at 200 mg/kg, po qd for 21 days measured on day 15", "format": "functional", "details": "read-out: TGI"}, "[15]": {"biological_target": "T1, Polyamine deacetylase HDAC10 (Homo sapiens, UniProt Q969S8)", "T1 sequence (Q969S8 whole entry)": "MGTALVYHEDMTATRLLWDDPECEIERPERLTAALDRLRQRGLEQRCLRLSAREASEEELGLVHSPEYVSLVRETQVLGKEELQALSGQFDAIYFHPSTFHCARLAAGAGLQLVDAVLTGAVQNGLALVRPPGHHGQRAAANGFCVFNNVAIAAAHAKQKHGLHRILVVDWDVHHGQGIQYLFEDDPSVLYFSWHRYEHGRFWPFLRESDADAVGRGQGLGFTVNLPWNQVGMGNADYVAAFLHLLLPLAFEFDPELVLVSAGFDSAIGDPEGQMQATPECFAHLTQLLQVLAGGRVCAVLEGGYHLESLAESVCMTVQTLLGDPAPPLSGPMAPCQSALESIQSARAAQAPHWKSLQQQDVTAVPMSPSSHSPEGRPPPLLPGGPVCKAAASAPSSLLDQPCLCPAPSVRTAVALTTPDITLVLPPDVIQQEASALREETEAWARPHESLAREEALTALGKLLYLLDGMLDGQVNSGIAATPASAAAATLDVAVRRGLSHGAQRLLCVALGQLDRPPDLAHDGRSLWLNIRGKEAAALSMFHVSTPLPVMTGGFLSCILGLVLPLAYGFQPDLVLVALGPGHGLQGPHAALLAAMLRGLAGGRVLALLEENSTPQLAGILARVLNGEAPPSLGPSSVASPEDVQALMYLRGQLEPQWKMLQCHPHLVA", "description": "Competitive inhibition of HDAC10 using KI-104 as substrate by fluorescence assay"}, "A2780": {"test_system": "A2780", "assay": "Antiproliferative activity against human A2780 cells after 96 hrs by celltiter 96 assay", "format": "functional, cell-based", "details": "A2780, 96 h"}, "[16]": {"biological_target": "T2, Protein deacetylase HDAC6 (Homo sapiens, UniProt Q9UBN7)", "T2 sequence (Q9UBN7 whole entry)": "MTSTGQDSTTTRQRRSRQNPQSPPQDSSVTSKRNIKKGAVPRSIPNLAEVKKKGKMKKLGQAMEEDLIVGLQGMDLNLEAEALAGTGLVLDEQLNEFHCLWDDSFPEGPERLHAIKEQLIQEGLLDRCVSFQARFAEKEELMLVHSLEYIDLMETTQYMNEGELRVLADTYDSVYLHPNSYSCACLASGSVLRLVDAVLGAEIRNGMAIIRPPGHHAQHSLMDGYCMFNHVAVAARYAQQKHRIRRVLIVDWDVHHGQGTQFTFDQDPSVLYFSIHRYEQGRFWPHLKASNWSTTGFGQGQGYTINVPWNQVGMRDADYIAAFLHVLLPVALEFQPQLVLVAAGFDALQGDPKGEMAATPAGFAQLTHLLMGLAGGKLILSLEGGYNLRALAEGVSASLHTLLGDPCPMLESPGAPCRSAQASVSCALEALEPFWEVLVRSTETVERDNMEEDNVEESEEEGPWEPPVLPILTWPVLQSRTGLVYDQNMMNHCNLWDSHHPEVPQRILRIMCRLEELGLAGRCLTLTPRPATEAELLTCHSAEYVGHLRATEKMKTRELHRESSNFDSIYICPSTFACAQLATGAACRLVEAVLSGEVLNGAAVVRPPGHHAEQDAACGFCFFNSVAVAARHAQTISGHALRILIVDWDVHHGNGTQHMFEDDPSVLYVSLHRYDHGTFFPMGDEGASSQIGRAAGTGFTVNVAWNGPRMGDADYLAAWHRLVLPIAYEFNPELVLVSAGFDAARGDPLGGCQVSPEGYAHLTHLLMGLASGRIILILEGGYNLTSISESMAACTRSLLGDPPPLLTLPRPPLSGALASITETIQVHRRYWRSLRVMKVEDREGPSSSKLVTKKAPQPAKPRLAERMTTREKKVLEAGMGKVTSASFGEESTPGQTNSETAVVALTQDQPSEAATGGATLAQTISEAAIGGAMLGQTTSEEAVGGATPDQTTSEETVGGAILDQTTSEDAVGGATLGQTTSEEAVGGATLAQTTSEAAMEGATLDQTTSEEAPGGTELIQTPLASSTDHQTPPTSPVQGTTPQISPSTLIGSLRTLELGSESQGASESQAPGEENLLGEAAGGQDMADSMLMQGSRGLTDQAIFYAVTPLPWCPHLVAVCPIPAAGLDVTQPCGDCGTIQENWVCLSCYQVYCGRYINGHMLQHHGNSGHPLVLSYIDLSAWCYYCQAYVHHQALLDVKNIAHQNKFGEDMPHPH", "description": "Competitive inhibition of HDAC6 using KI-104 as substrate by fluorescence assay"}, "HCT-116 [17]": {"test_system": "HCT-116", "assay": "Antitumor activity against human HCT116 cells xenografted in athymic nude nu/nu CD1 mouse assessed as tumor growth inhibition at 40 mg/kg, ip qd for 7 days measured on day 10", "format": "functional", "details": "HCT-116, ip, route intraperitoneal, read-out: TGI"}, "Mus musculus [18]": {"test_system": "Mus musculus", "assay": "Toxicity in athymic nu/nu Harlan mouse xenografted with human HCT116 cells assessed as body weight loss at 200 mg/kg, po QD for 7 days measured on day 5", "format": "organism-based, HCT-116", "set-up": "dose 200 mg/kg, route oral", "details": "in vivo, 168 h"}, "COLO 205": {"test_system": "COLO 205", "assay": "Antiproliferative activity against human COLO205 cells after 96 hrs by celltiter 96 assay", "format": "functional, cell-based", "details": "COLO 205, 96 h"}, "[19]": {"assay": "Oral bioavailability in nude BALB/c mouse at 50 mg/kg", "format": "ADME, organism-based", "details": "in vivo"}, "PC-3": {"test_system": "PC-3", "assay": "Antiproliferative activity against human PC3 cells after 96 hrs by celltiter 96 assay", "format": "functional, cell-based", "details": "PC-3, 96 h"}, "Mus musculus [20]": {"test_system": "Mus musculus", "assay": "Toxicity in athymic nu/nu Harlan mouse xenografted with human HCT116 cells assessed as mouse survival at 200 mg/kg, po QD for 21 days measured on day 22", "format": "organism-based, HCT-116", "set-up": "dose 200 mg/kg, route oral", "details": "in vivo, 504 h"}, "Histone deacetylase 4": {"biological_target": "Histone deacetylase 4 (Homo sapiens, UniProt P56524)", "sequence (P56524 whole entry)": "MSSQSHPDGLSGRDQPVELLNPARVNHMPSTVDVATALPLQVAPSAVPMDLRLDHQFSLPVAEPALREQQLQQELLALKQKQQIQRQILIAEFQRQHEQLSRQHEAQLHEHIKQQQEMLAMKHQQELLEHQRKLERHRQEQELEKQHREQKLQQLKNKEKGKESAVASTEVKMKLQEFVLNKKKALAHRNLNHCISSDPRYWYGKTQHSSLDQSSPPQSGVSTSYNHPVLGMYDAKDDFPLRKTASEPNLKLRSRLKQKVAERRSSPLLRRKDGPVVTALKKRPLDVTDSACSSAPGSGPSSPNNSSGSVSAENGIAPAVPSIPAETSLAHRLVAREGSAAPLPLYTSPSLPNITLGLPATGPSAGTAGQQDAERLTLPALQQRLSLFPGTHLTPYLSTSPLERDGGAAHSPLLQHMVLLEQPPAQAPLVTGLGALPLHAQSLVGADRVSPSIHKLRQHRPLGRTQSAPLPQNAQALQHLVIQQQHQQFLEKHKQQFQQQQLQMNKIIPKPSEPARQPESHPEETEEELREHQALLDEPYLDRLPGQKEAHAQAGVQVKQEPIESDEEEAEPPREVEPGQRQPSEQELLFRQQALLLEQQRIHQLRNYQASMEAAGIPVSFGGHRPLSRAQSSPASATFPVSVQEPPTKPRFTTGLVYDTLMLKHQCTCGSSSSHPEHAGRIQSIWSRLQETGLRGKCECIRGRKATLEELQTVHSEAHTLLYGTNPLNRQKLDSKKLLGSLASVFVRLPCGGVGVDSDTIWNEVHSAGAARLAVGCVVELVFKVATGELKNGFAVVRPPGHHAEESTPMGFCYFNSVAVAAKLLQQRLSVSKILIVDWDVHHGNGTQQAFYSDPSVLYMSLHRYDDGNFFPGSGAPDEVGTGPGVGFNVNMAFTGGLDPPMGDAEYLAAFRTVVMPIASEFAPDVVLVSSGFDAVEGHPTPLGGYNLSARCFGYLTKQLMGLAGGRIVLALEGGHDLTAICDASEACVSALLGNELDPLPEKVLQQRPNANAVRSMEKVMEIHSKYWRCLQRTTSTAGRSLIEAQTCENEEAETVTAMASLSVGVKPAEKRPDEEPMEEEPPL", "description": "Competitive inhibition of HDAC4 using KI-104 as substrate by fluorescence assay"}},
  "data": [
    {"smiles": "CCCCc1nc2cc(/C=C/C(=O)NO)ccc2n1CCNC(C)C.Cl.Cl", "values": [
      {"measurement": "Activity", "setting": "Mus musculus [1]", "result": 5, "unit": "%"},
      {"measurement": "inhibition in vivo at 50 mg/kg", "setting": "HCT-116 [2]", "result": 19, "unit": "%"},
      {"measurement": "inhibition in vivo at 200 mg/kg", "setting": "HCT-116 [3]", "result": 90, "unit": "%"},
      {"measurement": "Activity", "setting": "Mus musculus [4]", "result": "Non-toxic"},
      {"measurement": "inhibition in vivo at 100 mg/kg", "setting": "HCT-116 [5]", "result": 60, "unit": "%"},
      {"measurement": "half-life", "setting": "[6]", "result": "> 60", "unit": "min"},
      {"measurement": "half-life", "setting": "[7]", "result": 3.3, "unit": "min"},
      {"measurement": "solubility kinetic", "setting": "[8]", "result": "> 200", "unit": "µM"},
      {"measurement": "half-life", "setting": "[9]", "result": 36, "unit": "min"},
      {"measurement": "Activity", "setting": "Mus musculus [10]", "result": 7.9, "unit": "%"},
      {"measurement": "half-life", "setting": "[11]", "result": "> 60", "unit": "min"},
      {"measurement": "Activity", "setting": "Mus musculus [12]", "result": "Non-toxic"}
    ]},
    {"smiles": "O=C(/C=C/c1cccc(S(=O)(=O)Nc2ccccc2)c1)NO", "note": "[BELINOSTAT]", "values": [
      {"measurement": "IC50", "setting": "HCT-116 [13]", "result": 600, "unit": "nM"},
      {"measurement": "inhibition in vivo at 200 mg/kg", "setting": "HCT-116 [14]", "result": 42, "unit": "%"},
      {"measurement": "inhibition in vivo at 50 mg/kg", "setting": "HCT-116 [2]", "result": 6, "unit": "%"},
      {"measurement": "Ki", "setting": "[15]", "result": 59, "unit": "nM"},
      {"measurement": "inhibition in vivo at 200 mg/kg", "setting": "HCT-116 [3]", "result": 29, "unit": "%"},
      {"measurement": "Activity", "setting": "Mus musculus [4]", "result": "Non-toxic"},
      {"measurement": "inhibition in vivo at 100 mg/kg", "setting": "HCT-116 [5]", "result": 26, "unit": "%"},
      {"measurement": "IC50", "setting": "A2780", "result": 670, "unit": "nM"},
      {"measurement": "Ki", "setting": "[16]", "result": 10, "unit": "nM"},
      {"measurement": "inhibition in vivo at 40 mg/kg", "setting": "HCT-116 [17]", "result": 50, "unit": "%"},
      {"measurement": "Activity", "setting": "Mus musculus [18]", "result": 3.9, "unit": "%"},
      {"measurement": "IC50", "setting": "COLO 205", "result": 700, "unit": "nM"},
      {"measurement": "bioavailability", "setting": "[19]", "result": 6.7, "unit": "%"},
      {"measurement": "IC50", "setting": "PC-3", "result": 450, "unit": "nM"},
      {"measurement": "Activity", "setting": "Mus musculus [20]", "result": "Non-toxic"},
      {"measurement": "Ki", "setting": "Histone deacetylase 4", "result": 15, "unit": "nM"},
      {"measurement": "Activity", "setting": "Mus musculus [12]", "result": "Non-toxic"}
    ]}
  ]
}
